Measured values: patent US6858723B1, “Amphiphile cyclodextrins, preparation and use thereof for solubilizing organized systems and incorporating hydrophobic molecules” (Commissariat a l'Energie Atomique, priority 1999, dated 2005)

Tests used:
Type in all cases: physicochemical
[1] = neutron diffusion of nanoparticles loaded with hydrophobic compounds
From the text: FIG. 7 represents the neutron diffusion spectra obtained with: • the solution of nanoparticles of cyclodextrin according to example 1 and the fatty acid (1:0.5 eq. mol) (spectrum 9); • the solution of nanoparticles of cyclodextrin according to example 1 and the fatty acid (1:1 eg. mol) (spectrum 10); and • the solution of nanoparticles of cyclodextrin alone (spectrum 11).
In this figure, the theoretical spectrum (spectrum 12) simulating spheres has also been represented.
The intensity I(q) is increased. The Intensity I(q) is proportional to the volume of nanoparticles. The presence of additional molecules (fatty acid molecules) in the nanoparticles increases the value of the contrast and therefore the intensity.
The incorporation in mono-6-(cholest-5-en-3α-ylamide)succinylamide-6-deoxy-2,2′,2″,2′″,2″″,2′″″,2″″″,6′,6″,6′″, 6″″,6′″″,6″″″-trideca-O-methyl-cyclomaltoheptaose nanoparticles of the following hydrophobic compounds: • dothiepin (neurotrope), • chloramphenicol (bacteriostatic), • vitamin A, and • esculin (vascular wall tonic), • were also detected by neutron diffusion. References

[2] = cmc by surface tension measurements
Method: The cmc of the cyclodextrin in example 1 was determined with surface tension measurements. The value of the cmc is 9.10^−6 mol/l.

[3] = static light diffusion of aqueous nanoparticle solutions
Method: The mean hydrodynamic diameter of the nanoparticles was measured by quasi-elastic light diffusion. The mean diameter MD value calculated according to the Stokes-Einstein approximation based on the interaction-free perfect sphere model is […] (60 Å). The static light diffusion analysis of aqueous solutions of nanoparticles at different concentrations (2.5.10^−3, 5.10^−3 and 10^−2 mol/l) gives a mean aggregate mass of 43,000 g/mol, which is equivalent to a mean of 24 monomers per nanoparticle.

[4] = neutron diffusion of nanoparticle solution; conditions: 10^−2 mol/l in D2O
From the text: The diffusion spectrum obtained from a 10^−2 mol/l solution in D2O of the cyclodextrin derivative in example 1 is represented in FIG. 1 (spectrum 1).
In FIG. 1, the theoretical spectra simulating spheres (spectrum 2), cylinders (spectrum 3) or lamellae (spectrum 4) formed from the cyclodextrin derivative in example 1, at a concentration of 10^−2 mol/l in D2O, are also shown. […] These aggregates are lined on the surface with cyclodextrin cavities available for the inclusion of hydrophobic active molecules, the core being composed of cholesterol groups. The theoretical spectrum simulating spheres gives a mean diameter of […] (50 Å) and a mean number of monomers per nanoparticle of 24.

Compound | incorporation in nanoparticles of the cyclodextrin of example 1 [1] | other results
O=c1ccc2cc(O[C@@H]3O[C@H](CO)[C@@H](O)[C@H](O)[C@H]3O)c(O)cc2o1 [esculin] | detected | 
CC(CCCCCCCCCCCCCI)CC(=O)O (stereo not shown) [16-iodo-3-methylhexadecanoic acid] | marked modifications on the diffusion spectra | 
mono-6-(cholest-5-en-3α-ylaamide)succinylamide-6-deoxy-2,2′,2″,2′″,2″″,2′″″,2″″″,6,6′,6″,6′″,6″″,6′″″,6″″″-trideca-O-methyl-cyclomaltoheptaose [example 1] |  | critical micellar concentration cmc [2]: 9.10^−6 mol/l; mean aggregate mass ([3]; aqueous solutions 2.5.10^−3, 5.10^−3 and 10^−2 mol/l): 43,000 g/mol; mean monomers per nanoparticle ([3]; from mean aggregate mass): 24; shape of aggregates ([4]; experimental spectrum superimposed with theoretical spectrum of spheres): spherical shape; mean number of monomers per nanoparticle ([4]; theoretical spectrum simulating spheres): 24

Now from value to compound, other results behind:

incorporation in nanoparticles of the cyclodextrin of example 1 [1] | Compound | other results
detected | O=C(N[C@H](CO)[C@H](O)c1ccc([N+](=O)[O-])cc1)C(Cl)Cl [chloramphenicol] | 
detected | vitamin A | 
detected | CN(C)CC/C=C1\c2ccccc2CSc2ccccc21 [dothiepin] | 
